Experimental findings from US7691844B2, “Nonpeptide substituted spirobenzoazepines as vasopressin antagonists” (Ortho-McNeil Pharmaceutical, Inc., priority 2000, dated 2010) are described below.

In general, IC50 refers to the concentration needed to halve the response being measured.

Test [1] deals with T1, V1a (Homo sapiens, UniProt P37288). The experiment in a line: In-vitro receptor binding assay (3H-arginine-8-vasopressin), V1a. The method, boiled down:
(§1)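 Radioligand is 3H-arginine-8-vasopressin, incubated with receptor for one hour at room temperature, then filtered on GF/C plates and counted by scintillation. Non-specific binding was defined with 1.25 μM vasopressin, and results are given as % inhibition.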

The target of test [2] is human V2 receptor (Homo sapiens, UniProt P30518). Description: In-vitro receptor binding assay (3H-arginine-8-vasopressin), V2. The method, boiled down: as §1
The target of test [3] is T1, V1a. The experiment in a line: V1a vasopressin receptor functional activity (inhibition of vasopressin-induced intracellular calcium, FLIPR, V1a-HEK cells). Format: cell-based. The arrangement: expressed in transfected cells. The settings on record: HEK-293 cells transfected with human V1a receptor; vasopressin challenge. On the procedure: [formula] (B) V1a Vasopressin Receptor Functional Activity
The V1a receptor is a G-protein coupled receptor, which upon activation triggers an increase in intracellular calcium mobilization. To evaluate compounds for their functional V1a receptor activity, HEK-293 cells were transfected with the human V1a receptor (V1a-HEK cells). HEK-293 cells were grown in DMEM (Dulbecco's modified Eagle Media) supplemented with 10% FBS and glutamine. HEK-cells were passed biweekly by trypsinization and seeded into 96 well plates at 33,000 cells per well. HEK-293 cells were transfected with human V1a receptor DNA using DMRIE-C reagent from Life Technologies. Stable lines were generated by selecting cells grown in culture media containing geneticin. After growing in Packard Clear-View black 96 well plates for 4-6 days, V1a-HEK cells were loaded with the calcium-sensitive fluorescence dye, FLUO-3 AM. Changes in cell fluorescence were quantitated using FLIPR (Fluorometric Imaging Plate Reader; Molecular Devices, Sunnyvale, Calif.). Test compounds were first added to the cells and the resulting changes in fluorescence measured to detect receptor agonistic activity. Five minutes later the cells were challenged with vasopressin to test compounds for their antagonistic activity. Receptor antagonists inhibit the ability of vasopressin to stimulate increases in intracellular fluorescence. IC50's were calculated.
For orientation: Calcium flux is commonly read through the fluorescence of an indicator in the cells.

In test [4] the target is T2, V1b (Homo sapiens, UniProt P47901).
T2 sequence (P47901 1-424): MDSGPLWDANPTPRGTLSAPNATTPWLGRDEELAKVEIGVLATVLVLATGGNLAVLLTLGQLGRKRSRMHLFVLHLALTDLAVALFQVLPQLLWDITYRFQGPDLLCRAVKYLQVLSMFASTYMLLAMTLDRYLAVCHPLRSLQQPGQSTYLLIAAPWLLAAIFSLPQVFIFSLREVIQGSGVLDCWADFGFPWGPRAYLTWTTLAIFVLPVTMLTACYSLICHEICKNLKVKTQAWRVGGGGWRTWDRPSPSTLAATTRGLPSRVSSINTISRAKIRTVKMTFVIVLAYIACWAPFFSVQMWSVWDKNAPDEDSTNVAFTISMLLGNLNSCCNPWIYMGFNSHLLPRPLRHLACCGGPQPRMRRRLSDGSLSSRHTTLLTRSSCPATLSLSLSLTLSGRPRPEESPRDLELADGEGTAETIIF
Description: In-vitro receptor binding assay (3H-arginine-8-vasopressin), V1b. The protocol: (A) In-Vitro Binding Assay […] The reaction plates are allowed to sit at room temperature for one hour. The samples are filtered through Unifilter GF/C plates (presoaked in 0.3 polyethyleneimine). The plates are washed 5 times with cold physiological saline containing 0.05% Tween 20. After drying, the bottom of the filter plates are sealed and 0.025 ml of Microscint-20 is added to each filter. The top of the plate is sealed, and the plate is counted. Non-specific binding is determined by the addition of 1.25 μM […]-vasopressin in those wells. % Inh. is calculated as follows: […]

Setting [5] is: @ 10 μM, read-out: Receptor Binding V1b (% Inh. @ concentration in μM).

T1 sequence (P37288 whole entry): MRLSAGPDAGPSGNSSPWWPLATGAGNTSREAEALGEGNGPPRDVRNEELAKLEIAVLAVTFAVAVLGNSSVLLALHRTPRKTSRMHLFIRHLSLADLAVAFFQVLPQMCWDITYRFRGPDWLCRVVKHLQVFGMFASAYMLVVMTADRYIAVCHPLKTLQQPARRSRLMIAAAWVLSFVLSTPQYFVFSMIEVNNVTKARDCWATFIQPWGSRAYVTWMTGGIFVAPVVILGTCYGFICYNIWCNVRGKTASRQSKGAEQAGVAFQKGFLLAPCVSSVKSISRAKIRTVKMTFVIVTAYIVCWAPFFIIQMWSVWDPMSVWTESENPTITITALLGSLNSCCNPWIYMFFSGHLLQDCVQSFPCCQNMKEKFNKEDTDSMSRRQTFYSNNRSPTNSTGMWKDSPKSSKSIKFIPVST

As to `CN(C)CCNC(=O)C1=CC2(CC1)CCN(C(=O)c1ccc(NC(=O)c3ccccc3-c3ccccc3)cc1)c1ccccc1C2` (single isomer, unassigned) [Compound 21], the IC50 in test [1] stood at 0.181 µM; in test [2] it was 0.44 µM; in test [3], 0.008 µM. Besides, the inhibition at 10 µM in test [4] (setting [5]) worked out at 7%.
Turning to `O=C(NCCO)C1=CC2(CC1)CCN(C(=O)c1ccc(NC(=O)c3ccccc3F)cc1)c1ccccc1C2` (stereo not shown) [Compound 8], the results for the IC50 in test [1] and in test [3] were 0.004 µM and 0.099 µM, respectively. The inhibition at 0.1 µM in test [4] (@ 0.1 μM, read-out: Receptor Binding V1b (% Inh. @ concentration in μM)) was 41%.
As for `CN(C)CCNC(=O)C1=CC2(CC1)CCN(C(=O)c1ccc(NC(=O)c3ccccc3-c3ccccc3)cc1)c1ccccc1C2` (stereo not shown) [Compound 9, 4-(2-Phenylbenzoyl-4-aminobenzoyl)-3′-[2-(N,N-dimethylaminoethylcarbonyl)]-4-aza-[6,4]-spiro-[5,6]-benzoundec-2′-ene], the IC50 in test [1] stood at 0.005 µM; in test [2] it was 0.011 µM; in test [3], 0.004 µM. Besides, the inhibition at 10 µM in test [4] (setting [5]) is 12%.
In the case of `CN(C)CCNC(=O)C1=CC2(CC1)CCN(C(=O)c1ccc(NC(=O)c3ccccc3F)cc1)c1ccccc1C2` (stereo not shown) [Compound 16, 4-(2-Fluorobenzoyl-4-aminobenzoyl)-3′-[2-(N,N-dimethylaminoethylcarbonyl)]-4-aza-[6,4]-spiro-[5,6]-benzoundec-2′-ene], the IC50 in test [1] was determined as 0.008 µM; in test [3] it was 0.126 µM. For the same compound, the inhibition at 0.1 µM in test [2] (@ 0.1 μM, read-out: Receptor Binding V2 (% Inh. @ concentration in μM)) stood at 17%. The inhibition at 10 µM in test [4] (setting [5]) came to 8%.
Regarding `O=C(NCCN1CCCC1)C1=CC2(CC1)CCN(C(=O)c1ccc(NC(=O)c3ccccc3F)cc1)c1ccccc1C2` (stereo not shown) [Compound 19], the IC50 was 0.008 µM in test [1] and 0.155 µM in test [3]. In test [4] (@ 0.1 μM), the “Receptor Binding V1b (% Inh. @ concentration in μM)” value was determined as 22% @ 0.1.
As to `CN(C)CCNC(=O)C1=C[C@]2(CC1)CCN(C(=O)c1ccc(NC(=O)c3ccccc3-c3ccccc3)cc1)c1ccccc1C2` [Compound 20, (S)-4-(2-phenylbenzoyl-4-aminobenzoyl)-3′-(2-(N,N-dimethylaminoethylaminocarbonyl))-4-aza-[6,4]-spiro-[5,6]-benzoundec-2′-ene], the IC50 was 0.003 µM in test [1], 0.016 µM in test [2] and 0.002 µM in test [3]. For the same compound, in test [4] (@ 10 μM), the “Receptor Binding V1b (% Inh. @ concentration in μM)” value is 13% @ 10.
Take `Cc1cc(F)ccc1C(=O)Nc1ccc(C(=O)N2CCC3(C=CCCC3)Cc3ccccc32)cc1` (stereo not shown) [Compound 99]: the half-inhibitory concentration (IC50) in test [1] was 0.041 µM; in test [3] it was 0.08 µM. In test [2] (@ 1 μM, read-out: Receptor Binding V2 (% Inh. @ concentration in μM)), the inhibition at 1 µM was 35%.
Turning to `Cc1cc(F)ccc1C(=O)Nc1ccc(C(=O)N2CCC3(C=CCCC3)Cc3ccccc32)cc1` (stereo not shown) [Compound 100], the results for the IC50 in test [1], in test [2] and in test [3] were 0.008 µM, 0.067 µM and 0.05 µM, respectively.
For `O=C(Nc1ccc(C(=O)N2CCC3(C=CCCC3)Cc3ccccc32)cc1)c1ccccc1F` (stereo not shown) [Compound 101, 4-(2-Fluorobenzoyl-4-aminobenzoyl)-4-aza-[6,5]-spiro-[5,6]-benzododec-2′-ene], the IC50 in test [1] is 0.01 µM; in test [2] it was 0.55 µM; in test [3] it was 0.06 µM.
Take `O=C(Nc1ccc(C(=O)N2CCC3(C=CCCC3)Cc3ccccc32)c(Cl)c1)c1ccccc1F` (stereo not shown) [Compound 110]: the IC50 is 0.9 µM in test [1], 1 µM in test [2] and 2.57 µM in test [3].
On to “(R)-4-(2-fluorophenylbenzoyl-4-aminobenzoyl)-3′-(2-(N,N-dimethylaminoethylaminocarbonyl))-4-aza-[6,4]-spiro-[5,6]-benzoundec-2′-ene [Compound 23]”, for which the “Receptor Binding V1a (% Inh. @ concentration in μM)” value in test [1] (@ 0.1 μM) is given as 15% @ 0.1. Besides, the “Receptor Binding V2 (% Inh. @ concentration in μM)” value in test [2] (@ 0.1 μM) is 1% @ 0.1. The compound also came in with an IC50 in test [4] of 13.7 µM.
“(S)-4-(2-fluorophenylbenzoyl-4-aminobenzoyl)-3′-(2-(N,N-dimethylaminoethylaminocarbonyl))-4-aza-[6,4]-spiro-[5,6]-benzoundec-2′-ene [Compound 22]” showed an IC50 in test [1] of 0.003 µM. Besides, the “Receptor Binding V2 (% Inh. @ concentration in μM)” value in test [2] (@ 0.1 μM) stood at 15% @ 0.1. In test [4] (@ 10 μM), the “Receptor Binding V1b (% Inh. @ concentration in μM)” value is listed as 17% @ 10.
